These results are taken from ChEMBL document CHEMBL1133278, “1-[2-[(Heteroarylmethoxy)aryl]carbamoyl]indolines are selective and orally active 5-HT2C receptor inverse agonists” (Bioorg Med Chem Lett, 2000).

The target in experiment [1] is T1, 5-hydroxytryptamine receptor 2C (Homo sapiens, UniProt P28335).
T1 sequence (P28335 whole entry): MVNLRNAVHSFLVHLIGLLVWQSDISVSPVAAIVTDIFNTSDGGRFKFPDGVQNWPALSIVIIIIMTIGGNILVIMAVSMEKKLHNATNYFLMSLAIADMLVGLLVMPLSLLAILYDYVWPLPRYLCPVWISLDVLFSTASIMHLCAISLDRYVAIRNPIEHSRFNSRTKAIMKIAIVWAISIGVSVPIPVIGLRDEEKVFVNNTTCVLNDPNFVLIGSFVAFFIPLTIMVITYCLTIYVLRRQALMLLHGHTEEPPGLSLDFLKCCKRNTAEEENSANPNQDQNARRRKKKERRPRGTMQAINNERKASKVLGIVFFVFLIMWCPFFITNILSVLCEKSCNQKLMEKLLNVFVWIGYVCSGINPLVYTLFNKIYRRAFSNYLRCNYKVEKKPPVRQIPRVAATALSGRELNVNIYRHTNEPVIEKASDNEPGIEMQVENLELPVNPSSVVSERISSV
The experiment is described as follows: In vitro binding affinity at human cloned 5-hydroxytryptamine 2C receptor of HEK293 cells by [3H]mesulergine displacement. The experiment is classed as cell-based.

Experiment [2] has as its system Rattus norvegicus. Kind of experiment: Percent reversal of mCPP induced hypolocomotion after peroral administration at 5 mg/kg in rat. The experiment is classed as functional. The settings on record: route oral.
Experiment [3] deals with 5-hydroxytryptamine receptor 2A (Homo sapiens, UniProt P28223). Kind of experiment: In vitro binding affinity at human cloned 5-hydroxytryptamine 2A receptor of HEK293 cells by [3H]ketanserin displacement. The experiment is classed as cell-based.
5-hydroxytryptamine receptor 2A, sequence (P28223 whole entry): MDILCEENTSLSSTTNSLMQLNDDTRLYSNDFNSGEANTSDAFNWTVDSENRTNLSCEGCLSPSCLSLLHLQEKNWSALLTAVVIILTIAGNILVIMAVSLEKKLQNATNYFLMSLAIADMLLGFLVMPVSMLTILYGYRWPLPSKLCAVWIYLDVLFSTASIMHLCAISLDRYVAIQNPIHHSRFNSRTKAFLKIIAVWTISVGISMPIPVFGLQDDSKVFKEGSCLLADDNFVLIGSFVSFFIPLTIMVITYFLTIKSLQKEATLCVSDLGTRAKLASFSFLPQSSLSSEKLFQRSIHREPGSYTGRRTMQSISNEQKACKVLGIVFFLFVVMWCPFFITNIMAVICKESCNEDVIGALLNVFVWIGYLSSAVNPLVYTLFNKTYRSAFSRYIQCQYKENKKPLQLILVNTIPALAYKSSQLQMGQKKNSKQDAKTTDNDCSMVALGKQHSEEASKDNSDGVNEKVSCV
The target of experiment [4] is Serotonin 2 receptors; 5-HT2a & 5-HT2c (Homo sapiens) (UniProt P28223+P28335). Kind of experiment: Selectivity at 5-HT 2C receptor compared to serotonin 5-HT 2A receptor. The format is protein assay.
Serotonin 2 receptors; 5-HT2a & 5-HT2c (Homo sapiens), sequence (P28223 whole entry, looked up, one chain of several): as the sequence (P28223 whole entry) above
For experiment [5], the target named is Serotonin receptor (2b and 2c) (Homo sapiens) (UniProt P41595+P28335). Kind of experiment: Selectivity at serotonin 5-HT 2C receptor compared to serotonin 5-HT 2B receptor. The format is protein assay.
The target in experiment [6] is 5-hydroxytryptamine receptor 2B (Homo sapiens, UniProt P41595). The experiment is described as follows: In vitro binding affinity at human cloned 5-hydroxytryptamine 2B receptor of HEK293 cells by [3H]5-HT displacement. The experiment is classed as cell-based.
5-hydroxytryptamine receptor 2B, sequence (P41595 whole entry): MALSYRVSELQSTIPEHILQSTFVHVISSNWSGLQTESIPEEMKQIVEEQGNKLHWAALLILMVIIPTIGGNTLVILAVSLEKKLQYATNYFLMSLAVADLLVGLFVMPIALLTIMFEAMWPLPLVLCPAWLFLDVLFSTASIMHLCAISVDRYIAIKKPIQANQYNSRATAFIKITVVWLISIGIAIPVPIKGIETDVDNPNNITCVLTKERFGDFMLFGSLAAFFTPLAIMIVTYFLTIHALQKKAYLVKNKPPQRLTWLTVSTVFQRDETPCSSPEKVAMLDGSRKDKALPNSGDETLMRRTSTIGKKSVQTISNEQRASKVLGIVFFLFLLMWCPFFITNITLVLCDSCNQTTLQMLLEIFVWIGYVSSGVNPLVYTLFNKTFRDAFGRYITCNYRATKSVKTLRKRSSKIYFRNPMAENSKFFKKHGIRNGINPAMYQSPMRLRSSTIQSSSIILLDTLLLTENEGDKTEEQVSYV
In experiment [7] the test system is Rattus norvegicus. Kind of experiment: Dose required to reverse mCPP induced hypolocomotion by 50% at 7 mg/kg, ip administration 30 min pretest in rat. The settings on record: po, 0.5 h, read-out: ID50 (the source's name). The experiment is classed as functional.

Structures are written as SMILES.

As for `Cc1cc2c(cc1C(F)(F)F)N(C(=O)Nc1ccc(OCc3ccccn3)cc1)CC2`, the Ki in experiment [1] is 2.51 nM; in experiment [3], 398 nM; in experiment [6], 25.1 nM. For the same compound, the Reversal in the experiment on Rattus norvegicus [2] is reported as 84%. The results for the Selectivity in experiment [4] and in experiment [5] were 160 and 10, respectively.
Regarding `O=C(Nc1ccc(OCc2ccccn2)nc1)N1CCc2c(Cl)cccc21`, the Ki in experiment [1] is 79.4 nM; in experiment [3] it was 5010 nM; in experiment [6], 1000 nM. The Selectivity in experiment [4] is 60; in experiment [5] it was 13.
In the same order, the values of `Cc1cc2c(cc1Cl)N(C(=O)Nc1ccc(OCc3cccnc3)nc1)CC2` are 25.1 nM, more than 794 nM, 25.1 nM, more than 30 and 1.
With `Cc1cc2c(cc1Cl)N(C(=O)Nc1ccc(OCc3ccccn3)nc1)CC2`, the results for the Ki in experiment [1], in experiment [3] and in experiment [6] were 2.51 nM, more than 794 nM and 100 nM, respectively. In addition, in the experiment on Rattus norvegicus [2], the Reversal is listed as 41%. The Selectivity in experiment [4] is more than 320; in experiment [5], 40.
As to `Cc1cc2c(cc1C(F)(F)F)N(C(=O)Nc1ccc(OCc3ccccn3)nn1)CC2`, the Ki was 5.01 nM in experiment [1], 251 nM in experiment [3] and 79.4 nM in experiment [6]. Moreover, the Selectivity in experiment [4] was 50; in experiment [5], 15.
In the same order, the values of `Cc1cc2c(cc1C(F)(F)F)N(C(=O)Nc1ccc(CCc3ccccn3)nc1)CC2` are 3.16 nM, 158 nM, 20 nM, 50 and 6.
In the case of `Cc1cc2c(cc1C(F)(F)F)N(C(=O)Nc1cnc(OCc3ccccn3)c(C)c1)CC2`, the results for the Ki in experiment [1], in experiment [3] and in experiment [6] were 0.398 nM, 39.8 nM and 7.94 nM, respectively. For the same compound, the ED50 with Rattus norvegicus [7] came out at 0.3 mg/kg. Moreover, the values for the Selectivity in experiment [4] and in experiment [5] were 100 and 20, respectively.
As for `O=C(Nc1ccc(OCc2ccccn2)nc1)N1CCc2cc(C(F)(F)F)ccc21`, the Ki in experiment [1] is 6.31 nM; in experiment [3], 5010 nM; in experiment [6] it was 398 nM. Further, the ED50 in the experiment with Rattus norvegicus [7] worked out at 1.6 mg/kg. Also, the Selectivity in experiment [4] was determined as 800; in experiment [5], 60.
In the case of `Cc1cc2c(cc1C(F)(F)F)N(C(=O)Nc1ccc(OCc3cncn3C)nc1)CC2`, the Ki in experiment [1] was 3.98 nM; in experiment [3], 100 nM; in experiment [6], 6.31 nM. In addition, the Selectivity in experiment [4] worked out at 25; in experiment [5], 2.
In the same order, the values of `O=C(Nc1ccc(OCc2ccccn2)nc1)N1CCc2ccc(C(F)(F)F)cc21` are 7.94 nM, 251 nM, 251 nM, 30 and 30.
The like results for `Cc1cc2c(cc1Cl)N(C(=O)Nc1ccc(OCc3ccncc3)nc1)CC2` were, in that order, 1.26 nM, 79.4 nM, 7.94 nM, 60 and 6.
In the same order, the values of `O=C(Nc1ccc(OCc2ccccn2)nc1)N1CCc2cc(Cl)ccc21` are 31.6 nM, more than 5010 nM, 1000 nM, more than 160 and 30.
For `Cc1cc2c(cc1Cl)N(C(=O)Nc1ccc(OCc3nccn3C)nc1)CC2`, the Ki was 5.01 nM in experiment [1], 251 nM in experiment [3] and 12.6 nM in experiment [6]. Also, the Selectivity in experiment [4] came to 50; in experiment [5] it was 2.5.
Take `Cc1cc2c(cc1C(F)(F)F)N(C(=O)Nc1ccc(OCCc3ccccn3)nc1)CC2`: the Ki in experiment [1] was 10 nM; in experiment [3] it was 2000 nM; in experiment [6], 20 nM. Besides, the Selectivity in experiment [4] was found to be 200; in experiment [5] it was 2.
As for `O=C(Nc1ccc(OCc2ccccn2)nc1)N1CCc2cc(Br)ccc21`, the Ki in experiment [1] was 15.8 nM; in experiment [3], 2510 nM; in experiment [6] it was 501 nM. Also, the ED50 in the experiment with Rattus norvegicus [7] was determined as 2.4 mg/kg. For the same compound, the Selectivity in experiment [4] was determined as 160; in experiment [5], 30.
In the case of `Cc1cc2c(cc1C(F)(F)F)N(C(=O)Nc1ccc(COc3ccccn3)nc1)CC2`, the Ki in experiment [1] was 5.01 nM; in experiment [3], 100 nM; in experiment [6], 200 nM. In addition, the Selectivity is 20 in experiment [4] and 40 in experiment [5].
The like results for `Cc1cccc(COc2ccc(NC(=O)N3CCc4cc(C)c(C(F)(F)F)cc43)cn2)n1` were, in that order, 6.31 nM, 1000 nM, 25.1 nM, 160 and 4.
For `Cc1cc2c(cc1C(F)(F)F)N(C(=O)Nc1ccc(OCc3ccccn3)nc1)CC2`, the Ki in experiment [1] is 0.501 nM; in experiment [3], 631 nM; in experiment [6], 31.6 nM. For the same compound, the ED50 in the experiment with Rattus norvegicus [7] came out at 1 mg/kg. In addition, the Selectivity in experiment [4] was 1300; in experiment [5], 60.
Consider `Cc1cc2c(cc1C(F)(F)F)N(C(=O)Nc1ccc(OCc3cnccn3)nc1)CC2`, for which the Ki in experiment [1] was 0.501 nM; in experiment [3], 316 nM; in experiment [6], 10 nM. Also, the Reversal in the experiment on Rattus norvegicus [2] worked out at 58%. Also, the Selectivity in experiment [4] was 630; in experiment [5] it was 20.
As for `Cc1cc2c(cc1C(F)(F)F)N(C(=O)Nc1ccc(OCc3ncccc3C)nc1)CC2`, the Ki in experiment [1] was 3.98 nM; in experiment [3], 158 nM; in experiment [6], 15.8 nM. Also, the figures for the Selectivity in experiment [4] and in experiment [5] were 40 and 4, respectively.
For `Cc1cc2c(cc1Cl)N(C(=O)Nc1ccc(OCc3nccs3)nc1)CC2`, the figures for the inhibition constant Ki in experiment [1], in experiment [3] and in experiment [6] were 5.01 nM, more than 794 nM and 100 nM, respectively. For the same compound, the Reversal in the experiment with Rattus norvegicus [2] was determined as 2%. For the same compound, the Selectivity in experiment [4] was more than 160; in experiment [5] it was 20.
